The values below come from ChEMBL document CHEMBL1136804, “Adenosine kinase inhibitors. 3. Synthesis, SAR, and antiinflammatory activity of a series of l-lyxofuranosyl nucleosides” (J Med Chem, 2003).

Test [1] has as its system Rattus norvegicus. Put plainly: Anti-inflammatory activity at a dose of 10 mg/kg, perorally in rat Carrageenan paw edema model. To be noted: route oral. Type of test: functional.
For test [2], the target named is Adenosine kinase (Homo sapiens, UniProt P55263). In words: Inhibitory activity against human recombinant adenosine kinase.
Adenosine kinase, sequence (P55263 whole entry): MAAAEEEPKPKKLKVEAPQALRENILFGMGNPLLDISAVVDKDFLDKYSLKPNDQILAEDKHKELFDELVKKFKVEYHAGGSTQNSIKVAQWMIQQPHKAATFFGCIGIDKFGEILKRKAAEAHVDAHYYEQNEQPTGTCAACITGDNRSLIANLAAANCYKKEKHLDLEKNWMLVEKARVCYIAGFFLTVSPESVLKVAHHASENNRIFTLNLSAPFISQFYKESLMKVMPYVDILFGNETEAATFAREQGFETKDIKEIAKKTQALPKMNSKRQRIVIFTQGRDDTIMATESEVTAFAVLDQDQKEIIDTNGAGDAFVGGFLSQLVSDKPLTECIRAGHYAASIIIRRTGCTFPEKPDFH

In test [1], `OC[C@@H]1O[C@@H](n2nc(-c3ccccc3)c3c(Nc4ccccc4)ncnc32)[C@H](O)[C@@H]1O` (single isomer, unassigned) gave an inhibition in vivo at 10 mg/kg of 14.2%. The IC50 in test [2] stood at 2.8 nM.
Regarding `NC[C@@H]1O[C@@H](n2cnc3c(N)ncnc32)[C@H](O)[C@@H]1O` (single isomer, unassigned), in test [2], the IC50 was determined as 10000 nM.
On to `Nc1ncnc2c1c(Br)nn2[C@@H]1O[C@@H](CO)[C@@H](O)[C@H]1O` (single isomer, unassigned), for which the concentration for half-maximal inhibition (IC50) in test [2] is 10000 nM.
The same measure, in the same setting: then `Nc1ncnc2c1ncn2[C@@H]1O[C@@H](CO)[C@@H](O)[C@H]1O` (single isomer, unassigned), with 1000 nM.
In the case of `COC[C@@H]1O[C@@H](n2cc(I)c3c(N)ncnc32)[C@H](O)[C@@H]1O` (single isomer, unassigned), the IC50 in test [2] is 2000 nM.
With `Nc1ncnc2c1c(I)cn2[C@@H]1O[C@@H](CO)[C@@H](O)[C@H]1O` (single isomer, unassigned), at 10 mg/kg the inhibition in vivo in test [1] was 43.8%.
For `NC[C@@H]1O[C@@H](n2cc(I)c3c(N)ncnc32)[C@H](O)[C@@H]1O` (single isomer, unassigned), in test [2], the 50% inhibitory concentration (IC50) turned out to be 16 nM.
As to `Nc1ncnc2c1c(Br)cn2[C@@H]1O[C@@H](CO)[C@@H](O)[C@H]1O` (single isomer, unassigned), the half-maximal inhibitory concentration (IC50) in test [2] came to 280 nM.
In test [1], `OC[C@@H]1O[C@@H](n2cc(-c3ccccc3)c3c(Nc4ccc(F)cc4)ncnc32)[C@H](O)[C@@H]1O` (single isomer, unassigned) gave an inhibition in vivo at 10 mg/kg of 53.5%. Also, the IC50 in test [2] was found to be 1.5 nM.
As for `C[C@H]1O[C@@H](n2cc(-c3ccccc3)c3c(Nc4ccc(F)cc4)ncnc32)[C@H](O)[C@@H]1O` (single isomer, unassigned), the concentration for half-maximal inhibition (IC50) in test [2] amounted to 5 nM.
As to `NC[C@@H]1O[C@@H](n2nc(-c3ccccc3)c3c(Nc4ccccc4)ncnc32)[C@H](O)[C@@H]1O` (single isomer, unassigned), in test [2], the IC50 is 42 nM.
As for `COC[C@@H]1O[C@@H](n2cc(-c3ccccc3)c3c(Nc4ccccc4)ncnc32)[C@H](O)[C@@H]1O` (single isomer, unassigned), the inhibition in vivo at 10 mg/kg in test [1] was found to be 86%. The IC50 in test [2] amounted to 15 nM.
`NC[C@H]1O[C@@H](n2nc(Br)c3c(N)ncnc32)[C@H](O)[C@@H]1O` (single isomer, unassigned): in test [2], the IC50 amounted to 4 nM.
Turning to `NC[C@@H]1O[C@@H](n2nc(Br)c3c(N)ncnc32)[C@H](O)[C@@H]1O` (single isomer, unassigned), in test [2], the IC50 is 170 nM.

Broadly, the inhibition in vivo is how much of the control response was suppressed. What is called IC50 is the concentration needed to halve the response being measured.
